The values below come from patent publication US20220378923A1, “BET DEGRADER” (KYOWA KIRIN CO., LTD., priority 2019, published 2022).

Read-outs that look alike come from different tables or passages of the source.

One test concerns SU-DHL-4 cells. As to the kind of experiment: Inhibitory effect on cell viability in SU-DHL-4 cell line (Test Example 1). Format: cell-based, human. The note with it: 72 hours; for IC50: SU-DHL-4 (wild type) cells, calculated using the measurement results of test example 1, read-out: SU-DHL-4 WT IC50; for IC90: SU-DHL-4 cells, Cell Counting Kit-8, concentration showing 90% inhibition of cell viability, read-out: SU-DHL-4 Cell Viability Inhibition Rate IC90. The procedure, abridged:
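SU-DHL-4 cells were grown at 37° C. under 5% CO2 in RPMI1640 with 10 vol % heat-inactivated FBS plus penicillin/streptomycin, seeded and precultured for 18 to 25 hours, then exposed to test compound at 0.1 vol % DMSO for 72 hours. Viability was read with Cell Counting Kit-8 by absorbance at 450 nm.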

The test system of another test is DCAF16 KO SU-DHL-4 cells. As to the kind of experiment: Inhibitory effect on cell viability using SU-DHL-4 DCAF16 knock out (KO) cell line (Test Example 6). Type of test: cell-based, human. The note with it: for Activity Attenuation Ratio: (SU-DHL-4 DCAF16 KO IC50)/(SU-DHL-4 WT IC50); for IC50: DCAF16 KO SU-DHL-4 cells, 72 hours, Cell Counting Kit-8, 50% inhibition of cell viability. The procedure:
The human DLBCL cell line SU-DHL-4 was purchased from DSMZ. SU-DHL-4 was passaged using RPMI1640 medium containing 10 vol % FBS. After the Cas9 gene was introduced, the cells were cultured in the above medium containing 0.01 mg/mL blasticidin (InvivoGen, Cat No. ant-bl-1). After introduction of sgRNA, the cells were cultured in the above medium containing 0.0001 mg/mL puromycin dihydrochloride (SIGMA, Cat No. P9020-10 ML). The culture conditions were 37° C. and 5% CO2.
Edit-R Lentiviral hEF1α-Blast-Cas9 Nuclease Particles (Cat No. VCAS10126) was used as a lentivirus for expressing Cas9 in human cell lines. Three types of Edit-R Human DCAF16 Lentiviral sgRNA (Cat No. VSGH10142-246568260; DNA target sequence […] (SEQ ID NO: 1), Cat No. VSGH10142-246568262; DNA target sequence […] (SEQ ID NO: 2) and Cat No. VSGH10142-246568263; DNA target sequence […] (SEQ ID NO: 3)) were used as lentiviruses for introducing DCAF16 sgRNA. As a control, Edit-R Lentiviral sgRNA Non-targeting Control #1 (Cat No. VSGC10215) was used. All lentiviruses were purchased from Dharmacon and stored at −80° C. until use.
SU-DHL-4 was suspended at 4×10^5 cells/mL in RPMI 1640 without FBS, 0.25 mL of the suspension was added to a 24-well plate, and the cells were cultured overnight. The next day, 0.003 mL of virus particles of Edit-R Lentiviral hEF1α-Blast-Cas9 Nuclease Particles was added. After culturing in a CO2 incubator for 4 hours, RPMI 1640 containing 0.75 mL of 10 vol % FBS was added. After culturing in a CO2 incubator for about 48 hours, the medium was replaced with RPMI1640 containing 10 vol % FBS, and the cells were cultured in a CO2 incubator. Four days after infection, the medium was replaced with a medium containing 0.01 mg/mL blasticidin (InvivoGen, Cat No. ant-bl-1). Then, the cells were passaged once every 2 to 3 days and thus twice in total (that is, cultured for 1 week) to obtain SU-DHL-4/Cas9, which is a Cas9-introduced SU-DHL-4 cell line.
(6) sgRNA infection SU-DHL-4/Cas9 was suspended at 4×10^5 cells/mL in RPMI 1640 without FBS, 0.25 mL of the suspension was added to a 24-well plate, and the cells were cultured overnight. The next day, a total of 4 types of sgRNA virus particles, 1 type of Control and 3 types targeting DCAF16 were added to the respective wells by 0.03 mL. After culturing in a CO2 incubator for 5 hours, RPMI 1640 containing 0.75 mL of 10 vol % FBS was added.
After culturing in a CO2 incubator for about 48 hours, the medium was replaced with RPMI1640 containing 10 vol % FBS, and the cells were cultured in a CO2 incubator. Four days after infection, the medium was replaced with a medium supplemented with 0.01 mg/mL puromycin dihydrochloride (SIGMA, Cat No. P9020-10 ML). Then, the cells were passaged once or twice a week for 2 weeks, and a cell stock was prepared using CELLBANKER I plus (Takara Bio, Cat No. CB-021). Cell line stock was stored at −80° C. Using Edit-R Lentiviral sgRNA Non-targeting Control #1, the Negative Control sequence was introduced into the SU-DHL-4 cell line, which was referred to as SU-DHL-4 NC strain, and using Edit-R Human DCAF16 Lentiviral sgRNA, […] sequence (SEQ ID NO: 1) was introduced into the SU-DHL-4 cell line, which was referred to as SU-DHL-4 DCAF16 KO1 strain, […] sequence (SEQ ID NO: 2) was introduced into the SU-DHL-4 cell line, which was referred to as SU-DHL-4 DCAF16 KO2 strain, and […] sequence (SEQ ID NO: 3) was introduced into the SU-DHL-4 cell line, which was referred to as SU-DHL-4 DCAF16 KO 3 strain.
The cultured DCAF16 KO SU-DHL-4 cells were seeded at 2000 cells/well in a transparent 384-well plate (Code No. 781182, Greiner bio-one). After seeding, the cells were pre-cultured at 37° C. in a carbon dioxide gas incubator for 18 to 25 hours. […]
For orientation: Tetrazolium assays rely on reduction of a dye to a coloured formazan, in cell work by metabolically active cells.

Regarding `CCC(=O)N1c2ccccc2[C@H](NCC23CCC(C(=O)N4CC(C(=O)Nc5ccc(N[C@@H]6C[C@H](C)N(C(=O)CC)c7ccccc76)cc5)C4)(CC2)CC3)C[C@@H]1C` (relative stereo) [Compound 17o, 1-(4-((((2S,4R)-2-Methyl-1-propionyl-1,2,3,4-tetrahydroquinolin-4-yl)amino)methyl)bicyclo[2.2.2]octane-1-carbonyl)-N-(4-(((2S*,4R*)-2-methyl-1-propionyl-1,2,3,4-tetrahydroquinolin-4-yl)amino)phenyl)azetidine-3-carboxamide], in the test on SU-DHL-4 cells (Homo sapiens), the IC50 (commonly the concentration that inhibits the measured activity by half) was 0.78 nM and the IC90 (commonly the concentration needed for an effect of 90%) worked out at 2.18 nM. For the same compound, the “Activity Attenuation Ratio” value in the test with DCAF16 KO SU-DHL-4 cells is on record as 670. This compound also came in with an IC50 in the test on DCAF16 KO SU-DHL-4 cells (Homo sapiens) of 522 nM.
For `CCC(=O)N1c2ccccc2[C@H](Nc2ccc(NC(=O)CCCC(=O)Nc3ccc(C(=O)N4CCC(=O)Nc5ccccc54)cc3)cc2)C[C@@H]1C` [Compound 16o, N^1-(4-(((2S,4R)-2-Methyl-1-propionyl-1,2,3,4-tetrahydroquinolin-4-yl)amino)phenyl)-N5-(4-(4-oxo-2,3,4,5-tetra hydro-1H-benzo[b][1,4]diazepine-1-carbonyl)phenyl)glutaramide], in that order: 24.8 nM, 80.3 nM, 96 and 2400 nM.
In the case of `CCC(=O)N1c2ccccc2[C@H](Nc2ccc(NC(=O)CCCC(=O)NC3CCN(Cc4cc(O)cc(-c5c(C)noc5C)c4)CC3)cc2)C[C@@H]1C` [Compound 12c, N^1-(1-(3-(3,5-Dimethylisoxazol-4-yl)-5-hydroxybenzyl)piperidin-4-yl)-N^5-(4-(((2S,4R)-2-methyl-1-propionyl-1,2,3,4-tetrahydroquinolin-4-yl)amino)phenyl)glutaramide], in the test with SU-DHL-4 cells (Homo sapiens), the IC50 was 0.22 nM and the IC90 was 0.56 nM. For the same compound, the “Activity Attenuation Ratio” value in the test with DCAF16 KO SU-DHL-4 cells is recorded as more than 44436. Moreover, the IC50 in the test with DCAF16 KO SU-DHL-4 cells (Homo sapiens) was more than 10000 nM.
Turning to `CCC(=O)N1c2ccccc2[C@H](NCCCCC(=O)NCc2cn(-c3ccc(N[C@@H]4C[C@H](C)N(C(=O)CC)c5ccccc54)cc3)nn2)C[C@@H]1C` (relative stereo) [Compound 12f, 5-(((2S*,4R*)-2-Methyl-1-propionyl-1,2,3,4-tetrahydroquinolin-4-yl)amino)-N-((1-(4-(((2S,4R)-2-methyl-1-propionyl-1,2,3,4-tetrahydroquinolin-4-yl)amino)phenyl)-1H-1,2,3-triazol-4-yl)methyl)pentane amide], in the test on SU-DHL-4 cells, the IC50 was 0.24 nM and the IC90 came to 0.42 nM. In the test on DCAF16 KO SU-DHL-4 cells, the “Activity Attenuation Ratio” value is given as more than 40284 and the IC50 is more than 10000 nM.
Take `CCC(=O)N1c2ccccc2[C@H](Nc2ccc(C(=O)NCc3cn(-c4ccc(N[C@@H]5C[C@H](C)N(C(=O)CC)c6ccccc65)cc4)nn3)cc2)C[C@@H]1C` [Compound 3a, 4-{[(2S,4R)-2-Methyl-1-propionyl-1,2,3,4-tetrahydroquinolin-4-yl]amino}-N-{[1-(4-{[(2S,4R)-2-methyl-1-propionyl-1,2,3,4-tetrahydroquinolin-4-yl]amino}phenyl)-1H-1,2,3-triazol-4-yl]methyl}benzamide]: the IC50 in the test on SU-DHL-4 cells (Homo sapiens) was 0.025 nM; in the test on DCAF16 KO SU-DHL-4 cells (Homo sapiens), 6.58 nM. In addition, in the test on DCAF16 KO SU-DHL-4 cells, the “Activity Attenuation Ratio” value was determined as 263.
For `CCC(=O)N1c2ccccc2[C@H](Nc2ccc(C(=O)NCCNS(=O)(=O)c3ccc(N[C@@H]4C[C@H](C)N(C(=O)CC)c5ccccc54)cc3)cc2)C[C@@H]1C` [Compound 4d, 4-{[(2S,4R)-2-Methyl-1-propionyl-1,2,3,4-tetrahydroquinolin-4-yl]amino}-N-{2-[(4-{[(2S,4R)-2-methyl-1-propionyl-1,2,3,4-tetrahydroquinolin-4-yl]amino}phenyl)sulfonamide]ethyl}benzamide], in the test with SU-DHL-4 cells, the IC50 was 4.18 nM and the IC90 is 13 nM. Besides, in the test with DCAF16 KO SU-DHL-4 cells, the “Activity Attenuation Ratio” value amounted to 365 and the IC50 amounted to 1530 nM.
For `CCC(=O)N1c2ccccc2[C@H](Nc2ccc(NC(=O)N3CCN(C(=O)C4CCC(N[C@@H]5C[C@H](C)N(C(=O)CC)c6ccccc65)CC4)CC3)cc2)C[C@@H]1C` (stereo partly drawn) [Compound 7p, 4-((1R,4r)-4-(((2S,4R)-2-Methyl-1-propionyl-1,2,3,4-tetrahydroquinolin-4-yl)amino)cyclohexane-1-carbonyl)-N-(4-(((2S,4R)-2-methyl-1-propionyl-1,2,3,4-tetrahydroquinolin-4-yl)amino)phenyl)piperazine-1-carboxamide], in the test with SU-DHL-4 cells, the IC50 was 0.38 nM and the IC90 worked out at 0.79 nM. Further, in the test with DCAF16 KO SU-DHL-4 cells, the “Activity Attenuation Ratio” value is recorded as 766 and half-maximal inhibition (IC50) was put at 293 nM.
Take `Cc1sc2c(c1C)C(c1ccc(NC(=O)C#CCNC(=O)c3ccc(C4=NCc5nnc(C)n5-c5sc(C)c(C)c54)cc3)cc1)=NCc1nnc(C)n1-2` [Compound 14e, N-(4-Oxo-4-((4-(2,3,9-trimethyl-6H-thieno[3,2-f][1,2,4]triazolo[4,3-a][1,4]diazepin-4-yl)phenyl)amino)but-2-yn-1-yl)-4-(2,3,9-trimethyl-6H-thieno[3,2-f][1,2,4]triazolo[4,3-a][1,4]diazepin-4-yl)benzamide]: the IC50 in the test on SU-DHL-4 cells (Homo sapiens) is 0.21 nM; in the test on DCAF16 KO SU-DHL-4 cells (Homo sapiens), 68.3 nM. The “Activity Attenuation Ratio” value in the test with DCAF16 KO SU-DHL-4 cells is reported as 332.
`CCC(=O)N1c2ccccc2[C@H](Nc2ccc(NC(=O)CNCC(=O)Nc3ccc(N[C@@H]4C[C@H](C)N(C(=O)CC)c5ccccc54)cc3)cc2)C[C@@H]1C` [Compound 5d, 2,2′-Azanediylbis(N-(4-(((2S,4R)-2-methyl-1-propionyl-1,2,3,4-tetrahydroquinolin-4-yl)amino)phenyl)acetamide)]: the figures for the IC50 in the test with SU-DHL-4 cells (Homo sapiens) and in the test with DCAF16 KO SU-DHL-4 cells (Homo sapiens) were 0.31 nM and 167 nM, respectively. For the same compound, the “Activity Attenuation Ratio” value with DCAF16 KO SU-DHL-4 cells was 546.
For `CCC(=O)N1c2ccccc2[C@H](Nc2ccc(-c3nnc(CNC(=O)C4CCN(Cc5cc(O)cc(-c6c(C)noc6C)c5)CC4)o3)cc2)C[C@@H]1C` [Compound 12a, 1-(3-(3,5-Dimethylisoxazol-4-yl)-5-hydroxybenzyl)-N-((5-(4-(((2S,4R)-2-methyl-1-propionyl-1,2,3,4-tetrahydroquinolin-4-yl)amino)phenyl)-1,3,4-oxadiazol-2-yl)methyl)piperidine-4-carboxamide], in that order: 0.51 nM, 354 nM and 693.
